US20130052281A1, “NOVEL COMPOUNDS” (Takeda Pharmaceutical Company Limited, priority 2011, published 2013)

Target: Human DAAO enzyme (Homo sapiens, UniProt P14920)
Assay: In Vitro DAAO Enzyme Assay (Amplex Red detection of H2O2 from D-Serine)
Type: biochemical
Settings: inhibition of DAAO activity in the presence of 10 mM D-Serine; 60 minutes at 25° C.; ten point dose-response
Protocol: The Km of D-Serine was measured for each enzyme batch to maintain consistency; this Km was used in subsequent assays.
On the day of the assay compounds were serially diluted in DMSO before being diluted 1:20 with assay buffer (20 mM Tris ph 7.4). […] Finally 5 μl ‘Amplex’ red reagent (Invitrogen) was added to all wells as per manufacturer's protocol. The plate was incubated for 60 minutes in the dark at 25° C. and the fluorescence in each well was measured in the Envision plate reader.
Concentration response curves were generated using the average of duplicate wells for each data point and analyzed using non-linear regression and four parameter curve fit.

Chain of Human DAAO enzyme (P14920 whole entry): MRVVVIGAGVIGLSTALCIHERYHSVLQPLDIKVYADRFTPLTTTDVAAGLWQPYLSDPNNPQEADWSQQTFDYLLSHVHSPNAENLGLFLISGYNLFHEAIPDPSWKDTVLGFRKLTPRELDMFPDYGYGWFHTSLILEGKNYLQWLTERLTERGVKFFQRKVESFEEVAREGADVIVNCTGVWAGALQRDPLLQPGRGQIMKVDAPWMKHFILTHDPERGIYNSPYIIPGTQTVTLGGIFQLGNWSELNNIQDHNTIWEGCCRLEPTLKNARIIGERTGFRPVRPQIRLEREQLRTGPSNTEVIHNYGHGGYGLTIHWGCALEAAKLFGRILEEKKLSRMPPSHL

SMILES	IC50 [nM]
O=c1[nH]nc(CCc2cccc(OC(F)(F)F)c2)cc1O [Example 10, 4-Hydroxy-6-{2-[3-(trifluoromethoxy)phenyl]ethyl}pyridazin-3(2H)-one]	22
O=c1[nH]nc(CCc2cncc(C(F)(F)F)c2)cc1O [Example 12, 4-Hydroxy-6-{2-[5-(trifluoromethyl)pyridin-3-yl]ethyl}pyridazin-3(2H)-one]	23
